Data taken from patent US12103915B2, “TEAD inhibitors and methods of uses thereof” (Insilico Medicine IP Limited, priority 2022, dated 2024).

Key:
[1] = system: NCI-H226 cells; assay: Cell growth assay (CellTiter-Glo); assay type: cell-based, human; conditions: Homo sapiens, NCI-H226, 168 h, 7 days treatment, CellTiter-Glo luminescence, read-out: H226 CTG IC50
Experimental: Example A: Cell Growth Assay
CellTiter-Glo reagent (CTG reagent, Promega, G7573).
[…] Also seeding an extra plate as Day 0 control measurement. The microplates were incubated at 37° C., 5% CO2 overnight.
Compounds were 3-fold serial diluted in DMSO and final top-concentration was […], 10 points. 0.3% DMSO as vehicle control. In addition, […] of CTG reagent was added into the extra plate and incubated at room temperature for 30 minutes and detected luminescence signals as Day 0 control by using EnVision (PerkinElmer, 2104 Mutilabel Reader).
Incubated other compounds treated plates at 37° C. for another 7 days and […] of CTG reagent was added into the plates and incubated at room temperature for 30 minutes and detected luminescence signals.
Day 0 luminescence signals were used as negative control or baseline. • Signalday0=average luminescence signals of Day 0 control cells. • Signalblank control=average luminescence signals of blank control. • SignalDMSO vehicle control=average luminescence signals of Day 7 DMSO vehicle control cells. • Signalcpds treatment=luminescence signals of Day 7 compounds treatment cells. Inhibition %=1−(Signalcpds treatment−Signalblank control)/(SignalDMSO vehicle control−Signalblank control)*100.
(Inhibitory concentration 50% (IC50) and maximum inhibition % were calculated using dose response curves.

[2] = biological target: TEAD1 (Homo sapiens, UniProt P28347); assay: Thermal shift assay TEAD1; assay type: binding
Experimental: (§1) Example B: Thermal Shift Assay
(§2) 1) Prepare a fresh dilution of Protein Thermal Shift™ Dye (Applied Biosystems, 1000×) to 8× by […].
(§3) 2) To ensure the same DMSO concentration, the compounds were diluted as follows: Prepare 10 mM stock solution of compounds;
(§4) The final DMSO concentration was 0.1%
(§5) 10 μM: Diluting stock solution to 100 μM by using PBS.
(§6) 1 μM: Diluting stock solution to 1 mM by using DMSO, then dilute to 10 μM by using PBS.
(§7) TEAD1: the stock concentration was 2.9 mg/ml; the final concentration was 0.2 mg/ml. TEAD2: the stock concentration was 1.8 mg/ml; the final concentration was 0.08 mg/ml.
(§8) 4) Place the appropriate reaction plate or tubes on ice, then prepare the protein melt reactions:
(§9) 5) Pipet each reaction up and down 10 times to mix well.
(§10) 6) Seal the plate with MicroAmp™ Optical Adhesive Film, spin it at 1000 rpm for 1 minute.
(§11) 7) Set up and run on the qPCR instrument.
(§12) Using thermal Shift™ Software v1.3 to analysis.

[3] = biological target: TEAD2 (Homo sapiens, UniProt Q15562); assay: Thermal shift assay TEAD2; assay type: binding
Experimental: as §1, §2, §3, §4, §5, §6, §7, §8, §9, §10, §11, §12

[4] = biological target: TEAD3 (Homo sapiens, UniProt Q99594); assay: Thermal shift assay TEAD3; assay type: binding
Experimental: as §1, §2, §3, §4, §5, §6
TEAD3: the stock concentration was 2.4 mg/ml; the final concentration was 0.1 mg/ml.
as §8, §9, §10, §11, §12

[5] = biological target: TEAD4 (Homo sapiens, UniProt Q15561); assay: Thermal shift assay TEAD4; assay type: binding
Experimental: as §1, §2, §3, §4, §5, §6
TEAD4: the stock concentration was 2.3 mg/ml; the final concentration was 0.1 mg/ml.
as §8, §9, §10, §11, §12

Chain of TEAD2 (Q15562 whole entry, species assumed): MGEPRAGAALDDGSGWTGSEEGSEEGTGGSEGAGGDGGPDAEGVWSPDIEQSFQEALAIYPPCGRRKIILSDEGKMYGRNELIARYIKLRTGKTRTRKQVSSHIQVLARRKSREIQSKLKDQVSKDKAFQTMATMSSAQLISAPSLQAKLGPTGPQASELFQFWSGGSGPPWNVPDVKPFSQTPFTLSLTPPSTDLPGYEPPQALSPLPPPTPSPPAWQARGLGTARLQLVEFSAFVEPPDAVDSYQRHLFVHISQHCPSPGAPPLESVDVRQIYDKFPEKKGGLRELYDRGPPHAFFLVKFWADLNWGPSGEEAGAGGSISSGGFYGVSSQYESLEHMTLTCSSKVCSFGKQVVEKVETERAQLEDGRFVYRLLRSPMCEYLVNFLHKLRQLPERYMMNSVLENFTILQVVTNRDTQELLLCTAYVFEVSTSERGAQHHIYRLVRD
Chain of TEAD3 (Q99594 whole entry, species assumed): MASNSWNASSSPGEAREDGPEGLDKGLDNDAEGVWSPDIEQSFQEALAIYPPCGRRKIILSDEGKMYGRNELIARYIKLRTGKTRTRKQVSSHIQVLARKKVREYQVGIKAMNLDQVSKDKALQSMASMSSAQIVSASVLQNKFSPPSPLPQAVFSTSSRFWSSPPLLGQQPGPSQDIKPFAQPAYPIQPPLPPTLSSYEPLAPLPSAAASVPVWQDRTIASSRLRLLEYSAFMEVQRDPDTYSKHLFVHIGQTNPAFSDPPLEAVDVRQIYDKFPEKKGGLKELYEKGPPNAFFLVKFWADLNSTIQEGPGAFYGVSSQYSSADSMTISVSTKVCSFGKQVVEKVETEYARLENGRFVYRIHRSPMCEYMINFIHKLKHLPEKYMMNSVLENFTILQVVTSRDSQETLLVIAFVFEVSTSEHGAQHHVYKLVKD
Chain of TEAD1 (P28347 whole entry, species assumed): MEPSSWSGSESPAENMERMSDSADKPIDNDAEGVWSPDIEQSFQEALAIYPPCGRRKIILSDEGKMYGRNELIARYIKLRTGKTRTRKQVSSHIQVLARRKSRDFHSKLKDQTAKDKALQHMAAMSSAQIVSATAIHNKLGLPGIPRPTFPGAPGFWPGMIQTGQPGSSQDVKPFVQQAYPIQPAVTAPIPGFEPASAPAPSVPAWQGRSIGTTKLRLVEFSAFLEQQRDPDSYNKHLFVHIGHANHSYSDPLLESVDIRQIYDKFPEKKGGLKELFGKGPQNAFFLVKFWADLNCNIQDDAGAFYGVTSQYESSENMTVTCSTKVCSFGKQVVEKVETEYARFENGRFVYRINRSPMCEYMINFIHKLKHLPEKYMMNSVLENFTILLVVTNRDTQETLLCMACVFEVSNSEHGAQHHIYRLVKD
Chain of TEAD4 (Q15561 whole entry, species assumed): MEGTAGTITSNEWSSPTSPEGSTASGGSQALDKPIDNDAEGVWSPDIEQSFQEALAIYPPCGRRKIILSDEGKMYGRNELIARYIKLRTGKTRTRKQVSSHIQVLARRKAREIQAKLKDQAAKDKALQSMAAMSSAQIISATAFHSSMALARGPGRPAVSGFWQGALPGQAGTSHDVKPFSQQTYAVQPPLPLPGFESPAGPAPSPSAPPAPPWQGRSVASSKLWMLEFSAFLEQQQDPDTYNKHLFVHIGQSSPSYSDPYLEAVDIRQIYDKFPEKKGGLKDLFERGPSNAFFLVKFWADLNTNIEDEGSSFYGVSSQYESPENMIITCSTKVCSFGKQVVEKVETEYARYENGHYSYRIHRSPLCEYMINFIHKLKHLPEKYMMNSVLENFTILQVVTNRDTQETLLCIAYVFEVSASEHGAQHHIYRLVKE

IC50 [1]	TEAD1 ΔTm [2]	TEAD2 ΔTm [3]	TEAD3 ΔTm [4]	TEAD4 ΔTm [5]	Compound
< 0.1 µM	4.5 °C	5.5 °C	1.1 °C	5.7 °C	CNC(=O)[C@@H]1CC1c1cc(-c2ccc(C(F)(F)F)cc2)cc2c1=NC(C)N=2 (mixture of isomers) [Example 22]
< 0.1 µM	5.4 °C	6.9 °C	0.7 °C	6.6 °C	Cn1ncc2c(C3C[C@H]3C(N)=O)cc(-c3ccc(C(F)(F)F)cc3)cc21 (mixture of isomers) [Example 25]
0.1 to 0.5 µM	0.6 °C	0.5 °C	0.3 °C	0.6 °C	CC(C)NC(=O)[C@@H]1C[C@H]1c1cc(-c2ccc(C(F)(F)F)cc2)cc2c1cnn2C (racemic) [Example 27]
0.1 to 0.5 µM	2.1 °C	0.9 °C	0.2 °C	1.3 °C	CNC(=O)[C@@H]1C[C@H]1c1cc(-c2ccc(C(F)(F)F)cc2)cc2c1cnn2C(F)F (racemic) [Example 32]
< 0.1 µM	4 °C	6.7 °C	0.6 °C	6.5 °C	CNC(=O)[C@@H]1CC1c1cc(-c2ccc(OC(F)(F)F)cc2)cc2cn(C)nc12 (mixture of isomers) [Example 33]
< 0.1 µM	8.5 °C	12.7 °C	6.6 °C	10.3 °C	CNC(=O)[C@@H]1CC1c1cc(Oc2ccc(C(F)(F)F)cc2)cc2cn(C)nc12 (mixture of isomers) [Example 34]
0.1 to 0.5 µM	1.1 °C	0.8 °C	0.5 °C	0.2 °C	CNC(=O)[C@@H]1CC1c1cc(-c2ccc(C(F)(F)F)cc2)cc2cccnc12 (mixture of isomers) [Example 38]
1 to 30 µM	0 °C	0 °C	0 °C	0 °C	CNC(=O)[C@@H]1CC1c1cc(-c2ccc(C(F)(F)F)cc2)cc2scnc12 (mixture of isomers) [Example 39]
0.1 to 0.5 µM	6.0 °C	10.5 °C	5.1 °C	6.2 °C	CNC(=O)[C@@H]1CC1c1cc(Oc2ccc(C(F)(F)F)cc2)cc2cccnc12 (mixture of isomers) [Example 80]

Second part, the compound before the results:

Compound	IC50 [1]	TEAD1 ΔTm [2]	TEAD2 ΔTm [3]	TEAD3 ΔTm [4]	TEAD4 ΔTm [5]
O=C(O)[C@@H]1CC1c1cn(-c2ccc(C(F)(F)F)cc2)c2cccnc12 (mixture of isomers) [Example 20]	0.1 to 0.5 µM	3.8 °C	6.8 °C	3.2 °C	5.9 °C
Cc1ccc2c(c1)c(C1C[C@H]1C(=O)O)cn2-c1ccc(C(F)(F)F)cc1 (mixture of isomers) [Example 21]	< 0.1 µM	11 °C	6.7 °C	5.2 °C	9.3 °C
CCNC(=O)[C@@H]1CC1c1cc(-c2ccc(C(F)(F)F)cc2)cc2c1=NC(C)N=2 (mixture of isomers) [Example 23]	0.1 to 0.5 µM	4.7 °C	3.5 °C	0.7 °C	6.5 °C
CN(C)C(=O)[C@@H]1CC1c1cc(-c2ccc(C(F)(F)F)cc2)cc2c1cnn2C (mixture of isomers) [Example 26]	0.1 to 0.5 µM	1.7 °C	1.9 °C	0.1 °C	1.7 °C
CC(NC(=O)[C@@H]1C[C@H]1c1cc(-c2ccc(C(F)(F)F)cc2)cc2c1cnn2C)c1ccccn1 (mixture of isomers) [Example 28]	0.1 to 0.5 µM	3.7 °C	0.5 °C	0.5 °C	2.4 °C
COCCNC(=O)[C@@H]1C[C@H]1c1cc(-c2ccc(C(F)(F)F)cc2)cc2c1cnn2C (racemic) [Example 30]	0.1 to 0.5 µM	1.6 °C	0.8 °C	0.1 °C	0.9 °C
Cn1ncc2c([C@@H]3C[C@H]3C(=O)N3CC(O)C3)cc(-c3ccc(C(F)(F)F)cc3)cc21 (racemic) [Example 31]	0.1 to 0.5 µM	3 °C	2.7 °C	0 °C	2.8 °C
Cn1ncc2c(C3C[C@H]3C(N)=O)cc(Oc3ccc(C(F)(F)F)cc3)cc21 (mixture of isomers) [Example 35]	< 0.1 µM	5.4 °C	11.2 °C	5.4 °C	6.1 °C
CNC(=O)[C@@H]1CC1c1cc(Oc2ccc(C(F)(F)F)cc2)cc2c1cnn2C (mixture of isomers) [Example 36]	< 0.1 µM	6.8 °C	12.9 °C	4.6 °C	4.3 °C
CNC(=O)[C@@H]1CC1c1cc(OCc2ccc(C(F)(F)F)cc2)cc2c1cnn2C (mixture of isomers) [Example 37]	1 to 30 µM	0.2 °C	0.9 °C	0.1 °C	0.1 °C
CNS(=O)(=O)[C@@H]1CC1c1cc(Oc2ccc(C(F)(F)F)cc2)cc2cn(C)nc12 (mixture of isomers) [Example 51]	1 to 30 µM	7.5 °C	9.7 °C	10.6 °C	9.1 °C
CC(C)NC(=O)[C@@H]1CC1c1cc(Oc2ccc(C(F)(F)F)cc2)cc2cn(C)nc12 (mixture of isomers) [Example 56]	< 0.1 µM	8.3 °C	9 °C	7.2 °C	8.6 °C
CC(NC(=O)[C@@H]1CC1c1cc(Oc2ccc(C(F)(F)F)cc2)cc2cn(C)nc12)c1ccccn1 (mixture of isomers) [Example 57]	0.1 to 0.5 µM	7.6 °C	9.4 °C	12.4 °C	14 °C
CNC(=O)[C@@H]1CC1c1cc(Oc2ccc(C(F)(F)F)cc2)cc2cn(C3CC3)nc12 (mixture of isomers) [Example 78]	0.1 to 0.5 µM	9.2 °C	11.1 °C	0.4 °C	6.6 °C
CNC(=O)[C@@H]1CC1c1cc(Oc2ccc(C(F)(F)F)cc2)cc2cn(C(F)F)nc12 (mixture of isomers) [Example 79]	0.1 to 0.5 µM	8.1 °C	12.3 °C	1.0 °C	7.7 °C
CNS(=O)(=O)[C@@H]1CC1c1cc(Oc2ccc(C(F)(F)F)cc2)cc2cccnc12 (mixture of isomers) [Example 81]	0.5 to 1 µM	5.5 °C	9.6 °C	8.9 °C	8.2 °C
Cn1cc2cc(OC3CC4(C3)CC(F)(F)C4)cc(C3C[C@H]3C(=O)O)c2n1 (mixture of isomers) [Example 93]	0.1 to 0.5 µM	6.7 °C	9.3 °C	1.3 °C	6.4 °C
CNC(=O)[C@@H]1CC1c1cc(OC2CC3(C2)CC(F)(F)C3)cc2cn(C)nc12 (mixture of isomers) [Example 94]	0.1 to 0.5 µM	3.3 °C	6.5 °C	0.7 °C	2.6 °C
O=C(O)[C@@H]1C[C@H]1c1cc(Oc2ccc(C(F)(F)F)cc2)cc2c1NCCC2 (racemic) [Example 144]	1 to 30 µM	10.6 °C	18.2 °C	13.1 °C	9.9 °C
CNC(=O)[C@@H]1C[C@H]1c1cc(Oc2ccc(C(F)(F)F)cc2)cc2c1NCCC2 (racemic) [Example 145]	0.1 to 0.5 µM	4.8 °C	9.9 °C	1.0 °C	2.9 °C
CNS(=O)(=O)[C@@H]1C[C@H]1c1cc(Oc2ccc(C(F)(F)F)cc2)cc2c1NCCC2 (racemic) [Example 146]	0.1 to 0.5 µM	5.5 °C	12.0 °C	1.0 °C	6.7 °C
